Assay results reported in US20040220148A1, “5-Membered ring heterocycles as inhibitors of leucocyte adhesion and as VLA-4 antagonists” (Aventis Pharma Deutschland GmbH, priority 1996, published 2004).

target: T1, VLA-4 integrins on human U937 cells (interaction between VCAM-1 and VLA-4) (Homo sapiens, UniProt P05556+P13612); experiment: U937/VCAM-1 cell adhesion test (adhesion of U937 cells to hVCAM-1(1-3)-IgG); format: cell-based; conditions: concentration leading to 50% inhibition of adhesion
T1 construct: the VLA-4 integrins, are offered in their natural form as surface molecules on human U937 cells; host or cells: U937 cells (VLA-4, endogenous); the partner hVCAM-1(1-3)-IgG came from the supernatant of transfected COS cells (ATCC CRL1651)
From the text: As a test method for the activity of the compounds of the formula I on the interaction between VCAM-1 and VLA-4, an assay which is specific for this interaction is used. The cellular binding components, i.e. the VLA-4 integrins, are offered in their natural form as surface molecules on human U937 cells (ATCC CRL 1593) which belong to the group of leucocytes. As specific binding components, recombinant soluble fusion proteins prepared by genetic engineering and consisting of the extracytoplasmic domains of human VCAM-1 and the constant region of a human immunoglobulin of the subclass IgG1 are used.
Assay for the Measurement of the Adhesion of U937 Cells (ATCC CRL 1593) to hVCAM-1 (1-3)-IgG
1. Preparation of Human VCAM-1(1-3)-IgG and Human CD4-IgG
A genetic construct for the expression of the extracellular domains of human VCAM-1 was employed, associated with the genetic sequence of the heavy chain of human immunoglobulin IgG1 (hinge, CH2 and CH3 regions), from Dr. Brian Seed, Massachusetts General Hospital, Boston, USA. The soluble fusion protein hVCAM-1(1-3)-IgG contained the three amino-terminal extracellular immunoglobulin-like domains of human VCAM-1 (Damle and Aruffo, Proc. Natl. Acad. Sci. USA 1991, 88, 6403). CD4-IgG (Zettlmeissl et al, DNA and Cell Biology 1990, 9, 347) served as a fusion protein for negative controls. The recombinant proteins were expressed as soluble proteins after DEAE/dextran-mediated DNA-transfection in COS cells (ATCC CRL1651) according to standard procedures (Ausubel et al., Current protocols in molecular biology, John Wiley & Sons, Inc., 1994).
2. Assay for Measurement of the Adhesion of U937 Cells to hVCAM-1(1-3)-IgG
2.1 96-well microtiter test plates (Nunc Maxisorb) were incubated at room temperature for 1 hour with 100 μl/well of a goat-anti-human IgG antibody solution (10 μg/ml in 50 mM tris, pH 9.5). After removing the antibody solution, washing was carried out once with PBS.
2.2 150 μl/well of a blocking buffer (1% BSA in PBS) were incubated on the plates at room temperature for 0.5 hours. After removing the blocking buffer, washing was carried out once with PBS.
2.3 100 μl per well of a cell culture supernatant of transfected COS cells were incubated on the plates at room temperature for 1.5 hours. The COS cells were transfected with a plasmid which codes for the three N-terminal immunoglobulin-like domains of VCAM-1, coupled to the Fc part of human IgG1 (hVCAM-1(1-3)-IgG). The content of hVCAM-1 (1-3)-IgG was about […]. After removing the culture supernatant, washing was carried out once with PBS.
2.4 The plates were incubated at room temperature for 20 minutes with […] of Fc receptor blocking buffer (1 mg/ml of γ-globulin, 100 mM NaCl, 100 μM MgCl2, 100 μM MnCl2, 100 μM CaCl2, 1 mg/ml BSA in 50 mM HEPES, pH 7.5). After removing the Fc receptor blocking buffer, washing was carried out once with PBS.
2.5 20 μl of binding buffer (100 mM NaCl, 100 μM MgCl2, 100 μM MgCl2, 100 μM CaCl2, 1 mg/ml BSA in 50 mM HEPES, pH 7.5), were initially introduced, the substances to be tested were added in 10 μl of binding buffer and the mixture was incubated for 20 minutes. As controls, antibodies against VCAM-1 (BBT, No. BBA6) and against VLA-4
(Immunotech, No. 0764) were used.
2.6 U937 cells were incubated in Fc receptor blocking buffer for 20 minutes and then pipetted in at a concentration of 1×10^6/ml and in an amount of 100 μl per well ([…]).
2.7 The plates were slowly immersed at an angle of 45° in stop buffer (100 mM NaCl, 100 μM MgCl2, 100 μM MnCl2, 100 μM CaCl2 in 25 mM Tris, pH 7.5) and shaken off. The process was repeated.
2.8 50 μl/well of a dye solution (16.7 μg/ml of Hoechst dye 33258, 4% formaldehyde, 0.5% Triton X-100 in PBS) were then incubated on the plates for 15 minutes.
2.9 The plates were shaken off and slowly immersed at an angle of 45° in stop buffer (100 mM NaCl, 100 μM MgCl2, 100 μM MnCl2, 100 μM CaCl2 in 25 mM Tris, pH 7.5). The process was repeated. […]

T1 sequence (P13612 34-1032): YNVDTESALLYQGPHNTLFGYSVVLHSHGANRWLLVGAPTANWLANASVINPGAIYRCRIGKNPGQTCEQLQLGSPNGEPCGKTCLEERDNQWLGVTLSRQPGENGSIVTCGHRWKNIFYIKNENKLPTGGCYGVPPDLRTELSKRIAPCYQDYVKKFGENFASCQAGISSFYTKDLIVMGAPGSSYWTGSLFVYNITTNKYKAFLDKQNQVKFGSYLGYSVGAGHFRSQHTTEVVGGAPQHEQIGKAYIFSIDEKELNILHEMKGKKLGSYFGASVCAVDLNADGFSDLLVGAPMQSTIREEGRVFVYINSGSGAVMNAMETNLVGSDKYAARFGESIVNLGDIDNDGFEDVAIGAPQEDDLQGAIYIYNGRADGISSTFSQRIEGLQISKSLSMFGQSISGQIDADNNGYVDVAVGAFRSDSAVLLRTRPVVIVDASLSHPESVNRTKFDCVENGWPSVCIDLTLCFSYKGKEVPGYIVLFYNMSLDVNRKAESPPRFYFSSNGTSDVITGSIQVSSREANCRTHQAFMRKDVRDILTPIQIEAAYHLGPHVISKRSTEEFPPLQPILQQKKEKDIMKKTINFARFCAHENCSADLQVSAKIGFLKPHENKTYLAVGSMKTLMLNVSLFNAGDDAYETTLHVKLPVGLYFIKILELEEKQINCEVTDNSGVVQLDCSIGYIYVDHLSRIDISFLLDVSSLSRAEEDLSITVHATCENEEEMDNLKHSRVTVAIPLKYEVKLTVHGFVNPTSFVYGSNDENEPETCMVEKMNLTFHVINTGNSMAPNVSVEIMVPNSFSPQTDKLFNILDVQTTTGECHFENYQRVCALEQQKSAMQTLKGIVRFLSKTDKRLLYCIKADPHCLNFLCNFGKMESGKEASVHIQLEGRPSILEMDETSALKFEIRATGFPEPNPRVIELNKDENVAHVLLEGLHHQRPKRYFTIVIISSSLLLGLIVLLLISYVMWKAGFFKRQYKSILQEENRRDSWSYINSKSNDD
T1 sequence (P05556 21-798): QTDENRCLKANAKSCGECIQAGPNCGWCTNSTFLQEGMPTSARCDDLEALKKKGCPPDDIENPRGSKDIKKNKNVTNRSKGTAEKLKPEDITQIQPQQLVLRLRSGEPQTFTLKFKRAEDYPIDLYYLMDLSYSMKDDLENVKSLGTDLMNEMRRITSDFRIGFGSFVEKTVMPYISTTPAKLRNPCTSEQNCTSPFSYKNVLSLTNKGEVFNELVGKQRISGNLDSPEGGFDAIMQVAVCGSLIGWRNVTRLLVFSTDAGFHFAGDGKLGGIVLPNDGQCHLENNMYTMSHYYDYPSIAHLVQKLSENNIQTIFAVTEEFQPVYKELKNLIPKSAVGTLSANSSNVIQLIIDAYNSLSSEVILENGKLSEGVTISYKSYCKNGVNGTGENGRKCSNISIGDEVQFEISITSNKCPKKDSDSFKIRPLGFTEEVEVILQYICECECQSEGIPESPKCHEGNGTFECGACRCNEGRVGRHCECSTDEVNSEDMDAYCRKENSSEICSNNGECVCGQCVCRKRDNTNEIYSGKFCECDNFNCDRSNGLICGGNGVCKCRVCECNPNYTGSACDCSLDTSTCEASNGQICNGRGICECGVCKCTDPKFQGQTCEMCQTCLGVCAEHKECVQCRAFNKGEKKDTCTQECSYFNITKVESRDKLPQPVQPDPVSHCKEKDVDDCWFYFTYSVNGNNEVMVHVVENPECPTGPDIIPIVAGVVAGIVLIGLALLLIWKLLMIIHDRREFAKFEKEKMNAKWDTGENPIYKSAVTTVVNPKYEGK

Point of comparison: `CC1(Cc2ccc(NC(=N)N)cc2)C(=O)N(CC(=O)N[C@@H](CC(=O)O)C(=O)N[C@H](C(=O)O)c2ccccc2)C(=O)N1Cc1ccccc1` (stereo partly drawn) [Example 73, ((R,S)-4-(4-Guanidinobenzyl)-3-benzyl-4-methyl-2,5-dioxoimidazolidin-1-yl)acetyl-L-aspartyl-L-phenylglycine], IC50 125 µM. Against it:
- ((S)-4-(3-Guanidinopropyl)-3-benzyl-2,5-dioxoimidazolidin-1-yl)acetyl-D-glutamyl-L-phenylglycine-L-tyrosine hydrochloride [Example 40] — 4.6-fold lower, 27 µM
- ((S)-4-(3-Guarndinopropyl)-3-benzyl-2,5-dioxoimidazolidin-1-yl)acetyl-D-aspartyl-L-phenylglycine-L-tyrosine hydrochloride [Example 39] — 16-fold lower, 8 µM
